Reference: ChEMBL document CHEMBL1201862, “PubChem BioAssay data set” (2004)
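Five concentrations, 48 hours, 96-well plates. Here, GI50 denotes the concentration required for 50% inhibition of growth.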 The source made the active and inactive calls. Cut-off read from the data, not from the text of the source: active = GI50 up to about 1.1 µM and inactive = higher.

Columns and labels:
Assay in all cases: NCI tumour cell line growth inhibition, 48 h
[1] = system: OVCAR-4
[2] = system: SF-539
[3] = system: HCT-116
[4] = system: COLO 205
[5] = system: RPMI-8226
[6] = system: NCI-H460
[7] = system: SF-268
[8] = system: HCT-15
[9] = system: EKVX
[10] = system: HT-29
[11] = system: SK-MEL-5
[12] = system: UO-31
[13] = system: LOX IMVI
[14] = system: TK-10
[15] = system: HOP-62
[16] = system: SK-MEL-2
[17] = system: MCF7

Structure (SMILES) | GI50 [1] | GI50 [2] | GI50 [3] | GI50 [4] | GI50 [5] | GI50 [6] | GI50 [7] | GI50 [8] [µM] | GI50 [9] | GI50 [10] | GI50 [11] | GI50 [12] | GI50 [13] | GI50 [14] | GI50 [15] | GI50 [16] | GI50 [17]
Cc1oc2c(C)c3oc(=O)cc(C)c3cc2c1CN1C(=O)C2OCCOCCOCCOCCOCCO[C@H]2C1=O (stereo partly specified) | > 100 µM (inactive) | > 100 µM (inactive) | > 100 µM (inactive) | > 100 µM (inactive) | > 100 µM (inactive) | > 100 µM (inactive) | > 100 µM (inactive) | > 100 | > 100 µM (inactive) | > 100 µM (inactive) | > 100 µM (inactive) | > 100 µM (inactive) | > 100 µM (inactive) | > 100 µM (inactive) | > 100 µM (inactive) |  | 
Cn1c(=O)c2nc3c4ccccc4c(=O)n(C)c3nc2n(C)c1=O |  | > 100 µM (inactive) | > 100 µM (inactive) | > 100 µM (inactive) | > 100 µM (inactive) |  | > 100 µM (inactive) | > 100 | > 100 µM (inactive) | > 100 µM (inactive) | > 100 µM (inactive) | > 100 µM (inactive) |  | > 100 µM (inactive) |  | > 100 µM (inactive) | 
NNC(=O)N/N=C1/C(=O)N(c2ccc(Cl)c(Cl)c2)C(=O)C(=O)C1c1nc2ccccc2o1 (stereo unspecified) | > 100 µM (inactive) | > 100 µM (inactive) | > 100 µM (inactive) | > 100 µM (inactive) |  |  | > 100 µM (inactive) | > 100 | 45.3 µM (inactive) | > 100 µM (inactive) | > 100 µM (inactive) | > 100 µM (inactive) | > 100 µM (inactive) | > 100 µM (inactive) | > 100 µM (inactive) | > 100 µM (inactive) | 
Cn1cc(NC(=O)c2cc(NC(=O)CCCCCCCC(=O)Nc3cc(C(=O)Nc4cc(C(=O)NCCC(=N)N)n(C)c4)n(C)c3)cn2C)cc1C(=O)NCCC(=N)N | 46.1 µM (inactive) | 17.7 µM (inactive) | 17.9 µM (inactive) | 13.2 µM (inactive) |  | 4.69 µM (inactive) | 19.8 µM (inactive) | > 100 | 22 µM (inactive) | 63.1 µM (inactive) | 7.53 µM (inactive) | > 100 µM (inactive) | 15 µM (inactive) | 15 µM (inactive) | > 100 µM (inactive) | 14.1 µM (inactive) | 
O=S(=O)(c1ccccc1)c1nccs1 | > 100 µM (inactive) | > 100 µM (inactive) | > 100 µM (inactive) | > 100 µM (inactive) | > 100 µM (inactive) | > 100 µM (inactive) | > 100 µM (inactive) | > 100 | > 100 µM (inactive) | > 100 µM (inactive) | > 100 µM (inactive) | > 100 µM (inactive) | > 100 µM (inactive) | > 100 µM (inactive) | > 100 µM (inactive) | > 100 µM (inactive) | 
CCCCCCCCCCCCCCNCC(OC)OC | 15.1 µM (inactive) | 16.9 µM (inactive) | 13.1 µM (inactive) | 14.4 µM (inactive) |  | 17.8 µM (inactive) | 18.5 µM (inactive) | 11.8 | 18.2 µM (inactive) | 3.78 µM (inactive) | 15.2 µM (inactive) | 12.8 µM (inactive) | 16.4 µM (inactive) | 17.4 µM (inactive) | 16.7 µM (inactive) | 16.4 µM (inactive) | 
CCCc1nc(NC#N)nc(C(=O)NC23CC4CC(CC(C4)C2)C3)c1C | > 100 µM (inactive) | > 100 µM (inactive) | > 100 µM (inactive) | > 100 µM (inactive) | > 100 µM (inactive) | > 100 µM (inactive) | > 100 µM (inactive) | > 100 | > 100 µM (inactive) | > 100 µM (inactive) | > 100 µM (inactive) | > 100 µM (inactive) | > 100 µM (inactive) | > 100 µM (inactive) | > 100 µM (inactive) | > 100 µM (inactive) | 
C=C(C)C(=O)OC1C/C(CO)=C\C(O)C/C(C)=C/C2OC(=O)C(=C)C21 (stereo unspecified) | 25.9 µM (inactive) | 21 µM (inactive) | 17.5 µM (inactive) | 17.1 µM (inactive) | 17.3 µM (inactive) | 17.7 µM (inactive) | 22.2 µM (inactive) | 14.1 | 25.2 µM (inactive) | 17.6 µM (inactive) | 21 µM (inactive) | > 100 µM (inactive) | 18.5 µM (inactive) | 21.1 µM (inactive) | > 100 µM (inactive) | 17 µM (inactive) | 
O=c1cccccc1NCCOCCNc1cccccc1=O | > 100 µM (inactive) |  | > 100 µM (inactive) | > 100 µM (inactive) | > 100 µM (inactive) | > 100 µM (inactive) | > 100 µM (inactive) | > 100 | > 100 µM (inactive) | > 100 µM (inactive) | > 100 µM (inactive) | > 100 µM (inactive) | > 100 µM (inactive) | > 100 µM (inactive) | > 100 µM (inactive) | > 100 µM (inactive) | 
COC(=O)c1sc(C(=O)OC)c2c1C[S+]([O-])C2 | > 100 µM (inactive) | > 100 µM (inactive) | > 100 µM (inactive) | > 100 µM (inactive) | > 100 µM (inactive) |  | > 100 µM (inactive) | > 100 | > 100 µM (inactive) | > 100 µM (inactive) | > 100 µM (inactive) | > 100 µM (inactive) | > 100 µM (inactive) | > 100 µM (inactive) |  | > 100 µM (inactive) | 
CC1=C2C(O)C(C(C)C(=O)NCC(C)C)CCC2(C)C=CC1=O (stereo unspecified) | > 100 µM (inactive) | > 100 µM (inactive) | > 100 µM (inactive) | > 100 µM (inactive) | > 100 µM (inactive) | > 100 µM (inactive) | > 100 µM (inactive) | > 100 | > 100 µM (inactive) | > 100 µM (inactive) | > 100 µM (inactive) | > 100 µM (inactive) | > 100 µM (inactive) |  | > 100 µM (inactive) | > 100 µM (inactive) | > 100 µM (inactive)
CN(C)c1ccc(O[Si](Oc2ccc(N(C)C)cc2)(Oc2ccc(N(C)C)cc2)Oc2ccc(N(C)C)cc2)cc1 | > 100 µM (inactive) | > 100 µM (inactive) | > 100 µM (inactive) | 52.7 µM (inactive) | > 100 µM (inactive) |  | > 100 µM (inactive) |  | > 100 µM (inactive) | > 100 µM (inactive) | > 100 µM (inactive) | > 100 µM (inactive) | 79.1 µM (inactive) | > 100 µM (inactive) | > 100 µM (inactive) |  | 
CCCCCCCC(=O)OC(COC(=O)Cc1ccccc1)COC(=O)C(C)(C)C (stereo unspecified) | > 100 µM (inactive) |  | > 100 µM (inactive) | 46.3 µM (inactive) | > 100 µM (inactive) | > 100 µM (inactive) | > 100 µM (inactive) | > 100 |  |  | 74 µM (inactive) | > 100 µM (inactive) | > 100 µM (inactive) | > 100 µM (inactive) | > 100 µM (inactive) |  | 
O=C(/N=C(/Nc1ccccc1)SCS/C(=N\C(=O)c1ccco1)Nc1ccccc1)c1ccco1 | 82.2 µM (inactive) | 23.2 µM (inactive) | 37.2 µM (inactive) | > 100 µM (inactive) | > 100 µM (inactive) | > 100 µM (inactive) | 22.5 µM (inactive) | > 100 | 33.9 µM (inactive) | > 100 µM (inactive) | 61.5 µM (inactive) | 44.8 µM (inactive) | > 100 µM (inactive) | 29.4 µM (inactive) | 19.5 µM (inactive) | 80.2 µM (inactive) | 
Cc1ccc2nc(/C(=C/c3ccc(/C=C(\NC(=O)c4ccccc4)c4nc5ccc(C)cc5[nH]4)c(C)c3)NC(=O)c3ccccc3)[nH]c2c1 |  | 10.2 µM (inactive) | 18.1 µM (inactive) | 25.1 µM (inactive) | 16.6 µM (inactive) | 13.2 µM (inactive) | 3.45 µM (inactive) | 3.13 | 12.5 µM (inactive) | 28.1 µM (inactive) | 1.91 µM (inactive) | 9.12 µM (inactive) |  | 47.1 µM (inactive) | 46.6 µM (inactive) | 5.13 µM (inactive) | 
CCN(CC)c1ccc(/N=N\c2ccc(-c3nc4ccc[n+](C)c4s3)cc2)cc1 | 6.5 µM (inactive) | 11 µM (inactive) | 3.53 µM (inactive) | 3.24 µM (inactive) | 2.79 µM (inactive) | 4.01 µM (inactive) | 6.07 µM (inactive) | 16.7 | 24 µM (inactive) | 5.25 µM (inactive) | 5.48 µM (inactive) | 22.8 µM (inactive) | 0.423 µM (active) | 20 µM (inactive) | 17.3 µM (inactive) | 7.83 µM (inactive) | 
C#CCC[C@@H]1O[C@@]1(C)CC/C=C(\C)CC/C=C/C=O |  | 18.2 µM (inactive) |  | 26.7 µM (inactive) | 19.3 µM (inactive) | 41.1 µM (inactive) | 22.2 µM (inactive) | 35 | 58.3 µM (inactive) | 37.2 µM (inactive) |  | 35.8 µM (inactive) | 18.4 µM (inactive) |  | > 100 µM (inactive) | 55.7 µM (inactive) | 
CN(C)CCC1(C2=CCCC2)CC/C(=C\c2ccc3c(c2)OCO3)C1=O (stereo unspecified) | 13.5 µM (inactive) | 16 µM (inactive) | 13.2 µM (inactive) | 18.7 µM (inactive) | 23.7 µM (inactive) | 18.4 µM (inactive) | 14.4 µM (inactive) | 13.9 | 15.8 µM (inactive) | 12.2 µM (inactive) | 14.1 µM (inactive) | 7.52 µM (inactive) |  | 15.8 µM (inactive) |  | 16.9 µM (inactive) | 
